The values that follow come from BindingDB's records for doi:10.1021/jm00355a015 (1983).

The test deals with arachidonate 5-lipoxygenase (Cavia porcellus). As to the kind of experiment: Inhibitory activity against 5-lipoxygenase.

As for `CCCCC/C=C\C\C=C/C=C/C=C/C1CC1CCCC(=O)O` (stereo not drawn) [4-(2-Tetradeca-1,3,5,8-tetraenyl-cyclopropyl)-butyric acid], the half-maximal inhibitory concentration (IC50) is 3 µM. Compound `CCCCCCCCCCCCCCC1CC1CCCC(=O)O` (stereo not drawn) [4-(2-Tetradecyl-cyclopropyl)-butyric acid] gave an IC50 of 100 µM. Compound `CCCCC/C=C\C\C=C/C=C/C=C/C1SC1CCCC(=O)OC` (stereo not drawn) [4-(3-Tetradeca-1,3,5,8-tetraenyl-thiiranyl)-butyric acid methyl ester] gave an IC50 of 65 µM. For the compound `CCCCC/C=C\C\C=C/C=C/C=C/[C@@H]1O[C@H]1CCCC(=O)O` [4-{(2S,3S)-3-[(1E,3E,5Z,8Z)-tetradeca-1,3,5,8-tetraen-1-yl]oxiran-2-yl}butanoic acid], the IC50 was 2 µM. Then `CCCCC/C=C\C\C=C/C=C/C=C/C1CC1CCCCC(=O)O` (stereo not drawn) [5-(2-Tetradeca-1,3,5,8-tetraenyl-cyclopropyl)-pentanoic acid], with 20 µM; and `CCCCC/C=C\C/C=C\C/C=C\C=C\C(CO)CCCC(=O)O` (stereo not drawn) [5-Hydroxymethyl-icosa-6,8,11,14-tetraenoic acid], with 100 µM.

With `CCCCC/C=C\C/C=C\CC=CC=CC(=O)CCCC(=O)OC` [5-Oxo-icosa-6,8,11,14-tetraenoic acid methyl ester], the IC50 is 20 µM.

`CCCCC/C=C\C/C=C\C/C=C\C=C\[C@@H](O)CCCC(=O)O` [(5S,6E,8Z,11Z,14Z)-5-hydroxyicosa-6,8,11,14-tetraenoic acid]: the IC50 stood at 2 µM.

Usually IC50 stands for the concentration at which inhibition is half-maximal. Read a high IC50 as weaker potency.
